Reference: patent publication US9023789B2, “Amylin analogs and pharmaceutical compositions thereof” (Novo Nordisk A/S, priority 2012, dated 2015)
Numbered stars: 1 amine (or outer) side, 2 acyl side, 3 side chain; on linkers, the order of the positions; unused ones are H or OH. Bridge positions count the residues as written; N and C are the ends. Side chains are listed from the residue outwards. Peptide text beside a SMILES is read from it. * marks the point of attachment. C20 diacid = O=C(O)CCCCCCCCCCCCCCCCCCC(=O)*; γGlu = O=C(O)[C@H](CCC(=O)[*:2])N[*:1]; AEEA = NCCOCCOCC(=O)O

Target: T1, human calcitonin (a) receptor in BHK570 cells (Homo sapiens, UniProt P30988)
T1 construct: expressed in transfected cells
T1 sequence (P30988 25-474): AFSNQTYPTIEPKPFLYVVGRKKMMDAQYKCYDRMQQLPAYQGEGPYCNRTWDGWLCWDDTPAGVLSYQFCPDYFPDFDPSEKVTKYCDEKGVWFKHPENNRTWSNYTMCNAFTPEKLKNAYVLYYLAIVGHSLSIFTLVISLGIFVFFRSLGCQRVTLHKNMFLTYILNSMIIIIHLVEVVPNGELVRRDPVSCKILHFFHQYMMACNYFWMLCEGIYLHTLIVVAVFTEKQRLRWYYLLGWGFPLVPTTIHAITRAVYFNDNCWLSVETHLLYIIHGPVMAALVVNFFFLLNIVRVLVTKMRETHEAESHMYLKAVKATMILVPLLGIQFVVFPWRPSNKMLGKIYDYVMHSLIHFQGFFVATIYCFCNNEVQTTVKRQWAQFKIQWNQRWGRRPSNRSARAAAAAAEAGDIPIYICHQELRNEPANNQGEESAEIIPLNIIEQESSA
Assay: ASSAY (II)a functional assay, human calcitonin receptor (CRE luciferase)
Format: cell-based
Conditions: read-out: hCTR funct. EC50
Method in brief: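 Receptor activation is measured as cAMP-driven CRE-luciferase expression in BHK cells expressing the calcitonin receptor, with RAMP-3 co-expressed to form the amylin 3(a) receptor. Cells are exposed to compound for 3 hours at 37° C, and luciferase is then quantified by luminescence.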

Structure (SMILES)	EC50 [nM]
CC[C@H](C)[C@H](NC(=O)[C@H](C)NC(=O)CNC(=O)[C@H](Cc1ccccc1)NC(=O)[C@H](CC(N)=O)NC(=O)[C@@H]1CCCN1C(=O)[C@H](CO)NC(=O)[C@H](CO)NC(=O)[C@H](Cc1c[nH]cn1)NC(=O)[C@H](CCCNC(=N)N)NC(=O)[C@H](CC(C)C)NC(=O)[C@H](Cc1ccccc1)NC(=O)[C@H](CC(N)=O)NC(=O)[C@H](C)NC(=O)[C@H](CC(C)C)NC(=O)[C@H](CCCNC(=N)N)NC(=O)[C@H](CCC(N)=O)NC(=O)[C@@H](NC(=O)[C@H](C)NC(=O)[C@@H]1CSSC[C@H](NC(=O)[C@H](CCCCN)NC(=O)CC[C@H](NC(=O)CCCCCCCCCCCCCCCCCCC(=O)O)C(=O)O)C(=O)N[C@@H](CC(N)=O)C(=O)N[C@@H]([C@@H](C)O)C(=O)N[C@@H](C)C(=O)N[C@@H]([C@@H](C)O)C(=O)N1)[C@@H](C)O)C(=O)N1CCC[C@H]1C(=O)N[C@@H](CO)C(=O)N[C@@H](CO)C(=O)N[C@H](C(=O)N1CCC[C@H]1C(=O)N[C@H](C(=O)NCC(=O)N[C@@H](CO)C(=O)N[C@@H](CCC(=O)O)C(=O)N[C@H](C(=O)N[C@@H](Cc1ccc(O)cc1)C(N)=O)[C@@H](C)O)C(C)C)[C@@H](C)O [Example 28] ({C20 diacid-γGlu}-KCNTATCATQRLANFLRHSSPNFGAIPSSTPVGSETY-NH2; disulfide 2-7 (inferred))	2.03
CC[C@H](C)[C@H](NC(=O)[C@H](C)NC(=O)CNC(=O)[C@H](Cc1ccccc1)NC(=O)[C@H](CC(N)=O)NC(=O)[C@@H]1CCCN1C(=O)[C@H](CO)NC(=O)[C@H](CO)NC(=O)[C@H](Cc1c[nH]cn1)NC(=O)[C@H](CCCNC(=N)N)NC(=O)[C@H](CC(C)C)NC(=O)[C@H](Cc1ccccc1)NC(=O)[C@H](CC(N)=O)NC(=O)[C@H](C)NC(=O)[C@H](CC(C)C)NC(=O)[C@H](CCCNC(=N)N)NC(=O)[C@H](CCC(N)=O)NC(=O)[C@@H](NC(=O)[C@H](C)NC(=O)[C@@H]1CSSC[C@H](NC(=O)[C@@H](N)CCCCNC(=O)COCCOCCNC(=O)CC[C@H](NC(=O)CCCCCCCCCCCCCCCCCCC(=O)O)C(=O)O)C(=O)N[C@@H](CC(N)=O)C(=O)N[C@@H]([C@@H](C)O)C(=O)N[C@@H](C)C(=O)N[C@@H]([C@@H](C)O)C(=O)N1)[C@@H](C)O)C(=O)N1CCC[C@H]1C(=O)N[C@@H](CO)C(=O)N[C@@H](CO)C(=O)N[C@H](C(=O)N[C@@H](CC(N)=O)C(=O)N[C@H](C(=O)NCC(=O)N[C@@H](CO)C(=O)N[C@@H](CCC(=O)O)C(=O)N[C@H](C(=O)N[C@@H](Cc1ccc(O)cc1)C(N)=O)[C@@H](C)O)C(C)C)[C@@H](C)O [Example 26] (H-K([AEEA-γGlu-C20 diacid])CNTATCATQRLANFLRHSSPNFGAIPSSTNVGSETY-NH2; disulfide 2-7; N-terminus assumed)	6.34
CC[C@H](C)[C@H](NC(=O)[C@H](C)NC(=O)CNC(=O)[C@H](Cc1ccccc1)NC(=O)[C@H](CC(N)=O)NC(=O)[C@@H]1CCCN1C(=O)[C@H](CO)NC(=O)[C@H](CO)NC(=O)[C@H](Cc1c[nH]cn1)NC(=O)[C@H](CCCNC(=N)N)NC(=O)[C@H](CC(C)C)NC(=O)[C@H](Cc1ccccc1)NC(=O)[C@H](Cc1c[nH]cn1)NC(=O)[C@H](C)NC(=O)[C@H](CC(C)C)NC(=O)[C@H](CCCNC(=N)N)NC(=O)[C@H](CCC(N)=O)NC(=O)[C@@H](NC(=O)[C@H](C)NC(=O)[C@@H]1CSSC[C@H](NC(=O)[C@@H](N)CCCCNC(=O)COCCOCCNC(=O)CC[C@H](NC(=O)CCCCCCCCCCCCCCCCCCC(=O)O)C(=O)O)C(=O)N[C@@H](CC(N)=O)C(=O)N[C@@H]([C@@H](C)O)C(=O)N[C@@H](C)C(=O)N[C@@H]([C@@H](C)O)C(=O)N1)[C@@H](C)O)C(=O)N1CCC[C@H]1C(=O)N[C@@H](CO)C(=O)N[C@@H](CO)C(=O)N[C@H](C(=O)N[C@@H](CC(N)=O)C(=O)N[C@H](C(=O)NCC(=O)N[C@@H](CCCNC(=N)N)C(=O)N[C@@H](CC(N)=O)C(=O)N[C@H](C(=O)N[C@@H](Cc1ccc(O)cc1)C(N)=O)[C@@H](C)O)C(C)C)[C@@H](C)O [Example 84] (H-K([AEEA-γGlu-C20 diacid])CNTATCATQRLAHFLRHSSPNFGAIPSSTNVGRNTY-NH2; disulfide 2-7 (inferred); N-terminus assumed)	5.49
CC[C@H](C)[C@H](NC(=O)[C@H](C)NC(=O)CNC(=O)[C@H](Cc1ccccc1)NC(=O)[C@H](CC(N)=O)NC(=O)[C@@H]1CCCN1C(=O)[C@H](CO)NC(=O)[C@H](CO)NC(=O)[C@H](Cc1c[nH]cn1)NC(=O)[C@H](CCCNC(=N)N)NC(=O)[C@H](CC(C)C)NC(=O)[C@H](Cc1ccccc1)NC(=O)[C@H](Cc1c[nH]cn1)NC(=O)[C@H](C)NC(=O)[C@H](CC(C)C)NC(=O)[C@H](CCCNC(=N)N)NC(=O)[C@H](CCC(N)=O)NC(=O)[C@@H](NC(=O)[C@H](C)NC(=O)[C@@H]1CSSC[C@H](NC(=O)[C@@H](N)CCCCNC(=O)COCCOCCNC(=O)CC[C@H](NC(=O)CCCCCCCCCCCCCCCCCCC(=O)O)C(=O)O)C(=O)N[C@@H](CC(N)=O)C(=O)N[C@@H]([C@@H](C)O)C(=O)N[C@@H](C)C(=O)N[C@@H]([C@@H](C)O)C(=O)N1)[C@@H](C)O)C(=O)N1CCC[C@H]1C(=O)N[C@@H](CO)C(=O)N[C@@H](CO)C(=O)N[C@H](C(=O)N[C@@H](CC(N)=O)C(=O)N[C@H](C(=O)NCC(=O)N[C@@H](Cc1c[nH]cn1)C(=O)N[C@@H](CC(N)=O)C(=O)N[C@H](C(=O)N[C@@H](Cc1ccc(O)cc1)C(N)=O)[C@@H](C)O)C(C)C)[C@@H](C)O [Example 80] (H-K([AEEA-γGlu-C20 diacid])CNTATCATQRLAHFLRHSSPNFGAIPSSTNVGHNTY-NH2; disulfide 2-7; N-terminus assumed)	2.14

The next compounds have a lower EC50 than those just listed; values first:

EC50 [nM]	Structure (SMILES)
0.537	CC[C@H](C)[C@H](NC(=O)[C@H](C)NC(=O)CNC(=O)[C@H](Cc1ccccc1)NC(=O)[C@H](CC(N)=O)NC(=O)[C@@H]1CCCN1C(=O)[C@H](CO)NC(=O)[C@H](CO)NC(=O)[C@H](Cc1c[nH]cn1)NC(=O)[C@H](CCCNC(=N)N)NC(=O)[C@H](CC(C)C)NC(=O)[C@H](Cc1ccccc1)NC(=O)[C@H](C)NC(=O)[C@H](C)NC(=O)[C@H](CC(C)C)NC(=O)[C@H](CCCNC(=N)N)NC(=O)[C@H](CCC(N)=O)NC(=O)[C@@H](NC(=O)[C@H](C)NC(=O)[C@@H]1CSSC[C@H](NC(=O)[C@H](CCCNC(=N)N)NC(=O)CNC(=O)CC[C@H](NC(=O)CCCCCCCCCCCCCCCCCCC(=O)O)C(=O)O)C(=O)N[C@@H](CC(N)=O)C(=O)N[C@@H]([C@@H](C)O)C(=O)N[C@@H](C)C(=O)N[C@@H]([C@@H](C)O)C(=O)N1)[C@@H](C)O)C(=O)N1CCC[C@H]1C(=O)N[C@@H](CO)C(=O)N[C@@H](CO)C(=O)N[C@H](C(=O)N[C@@H](CC(N)=O)C(=O)N[C@H](C(=O)NCC(=O)N[C@@H](Cc1c[nH]cn1)C(=O)N[C@@H](CC(N)=O)C(=O)N[C@H](C(=O)N[C@@H](Cc1ccc(O)cc1)C(N)=O)[C@@H](C)O)C(C)C)[C@@H](C)O [Example 101] ({C20 diacid-γGlu}-GRCNTATCATQRLAAFLRHSSPNFGAIPSSTNVGHNTY-NH2; disulfide 3-8)
0.528	CC[C@H](C)[C@H](NC(=O)[C@H](C)NC(=O)CNC(=O)[C@H](Cc1ccccc1)NC(=O)[C@H](CC(N)=O)NC(=O)[C@@H]1CCCN1C(=O)[C@H](CO)NC(=O)[C@H](CO)NC(=O)[C@H](Cc1c[nH]cn1)NC(=O)[C@H](CCCNC(=N)N)NC(=O)[C@H](CC(C)C)NC(=O)[C@H](Cc1ccccc1)NC(=O)[C@H](CCC(=O)O)NC(=O)[C@H](C)NC(=O)[C@H](CC(C)C)NC(=O)[C@H](CCCNC(=N)N)NC(=O)[C@H](CCC(N)=O)NC(=O)[C@@H](NC(=O)[C@H](C)NC(=O)[C@@H]1CSSC[C@H](NC(=O)[C@H](CCCCN)NC(=O)CC[C@H](NC(=O)CCCCCCCCCCCCCCCCCCC(=O)O)C(=O)O)C(=O)N[C@@H](CC(N)=O)C(=O)N[C@@H]([C@@H](C)O)C(=O)N[C@@H](C)C(=O)N[C@@H]([C@@H](C)O)C(=O)N1)[C@@H](C)O)C(=O)N[C@@H](CC(C)C)C(=O)N1CCC[C@H]1C(=O)N[C@@H](CO)C(=O)N[C@H](C(=O)N[C@@H](CC(N)=O)C(=O)N[C@H](C(=O)NCC(=O)N[C@@H](CO)C(=O)N[C@@H](CCC(=O)O)C(=O)N[C@H](C(=O)N[C@@H](Cc1ccc(O)cc1)C(N)=O)[C@@H](C)O)C(C)C)[C@@H](C)O [Example 33] ({C20 diacid-γGlu}-KCNTATCATQRLAEFLRHSSPNFGAILPSTNVGSETY-NH2; disulfide 2-7)
0.372	CC[C@H](C)[C@H](NC(=O)[C@H](C)NC(=O)CNC(=O)[C@H](Cc1ccccc1)NC(=O)[C@H](CC(N)=O)NC(=O)[C@@H]1CCCN1C(=O)[C@H](CO)NC(=O)[C@H](CO)NC(=O)[C@H](Cc1c[nH]cn1)NC(=O)[C@H](CCCNC(=N)N)NC(=O)[C@H](CC(C)C)NC(=O)[C@H](Cc1ccccc1)NC(=O)[C@H](CCC(=O)O)NC(=O)[C@H](C)NC(=O)[C@H](CC(C)C)NC(=O)[C@H](CCCNC(=N)N)NC(=O)[C@H](CCC(N)=O)NC(=O)[C@@H](NC(=O)[C@H](C)NC(=O)[C@@H]1CSSC[C@H](NC(=O)[C@H](CCCCN)NC(=O)CC[C@H](NC(=O)CCCCCCCCCCCCCCCCCCC(=O)O)C(=O)O)C(=O)N[C@@H](CC(N)=O)C(=O)N[C@@H]([C@@H](C)O)C(=O)N[C@@H](C)C(=O)N[C@@H]([C@@H](C)O)C(=O)N1)[C@@H](C)O)C(=O)N1CCC[C@H]1C(=O)N[C@@H](CO)C(=O)N1CCC[C@H]1C(=O)N[C@H](C(=O)N[C@@H](CC(N)=O)C(=O)N[C@H](C(=O)NCC(=O)N[C@@H](CO)C(=O)N[C@@H](CC(N)=O)C(=O)N[C@H](C(=O)N[C@@H](Cc1ccc(O)cc1)C(N)=O)[C@@H](C)O)C(C)C)[C@@H](C)O [Example 37] ({C20 diacid-γGlu}-KCNTATCATQRLAEFLRHSSPNFGAIPSPTNVGSNTY-NH2; disulfide 2-7 (inferred))
